Experimental data published in US20060166985A1, “Pyrrolydin-2-one derivatives as inhibitors of thrombin and factor xa” (priority 2002, published 2006).

biological target: human Thrombin (Homo sapiens, UniProt P00734); test: In vitro assay for inhibition of Thrombin (chromogenic or fluorogenic assay); format: biochemical; conditions: Example 2 chromogenic assay, other Examples fluorogenic assay, read-out: thrombin inhibitory Ki
Protocol: Thrombin inhibitory activity is measured by the ability to inhibit human α-thrombin in a chromogenic assay using N-p-tosyl-gly-pro-lys p-nitroanilide as the chromogenic substrate, or in a fluorogenic assay using Rhodamine 110, bis-(CBZ-L-valyl-L-prolyl-L-arginine amide) as the fluorogenic substrate.
The compound was diluted from a 10 mM stock solution in dimethylsulfoxide at appropriate concentrations. Assay was performed at room temperature using buffer consisting of: 50 mM HEPES, 150 mM NaCl, 5 mM CaCl2, 0.1% PEG, pH 7.4. containing human Thrombin (final conc. of 1 nM). Compound and enzyme were preincubated for 15 min prior to addition of the substrate (final conc. of 100 μM). The reaction was stopped after 30 min with the addition of soybean trypsin inhibitor or H-D-PHE-PRO-ARG-Chloromethylketone. […] To obtain IC50 values the data were analysed using ActivityBase® and XLfit®.
Compounds were diluted from a 10 mM stock solution in dimethylsulfoxide at appropriate concentrations. Assay was performed at room temperature using buffer consisting of: 50 mM HEPES, 150 mM NaCl, 5 mM CaCl2, 0.1% PEG, pH 7.4. containing human Thrombin (final conc. Of 0.2 nM). Compound and enzyme were preincubated for 15 min prior to addition of the substrate (final conc. of 10 μM). The reaction was stopped after 3 hrs with the addition of H-D-PHE-PRO-ARG-Chloromethylketone. […] To obtain IC50 values the data were analysed using ActivityBase® and XLfit®.

Row | SMILES | Ki
1 | O=C([C@H](Cc1ccccc1)N1CC[C@H](NS(=O)(=O)CCc2ccc(Cl)s2)C1=O)N1CCOCC1 [Example 13, N-{(3S)-1-[(1S)-1-benzyl-2-morpholin-4-yl-2-oxoethyl]-2-oxopyrrolidin-3-yl}-2-(5-chlorothien-2-yl)ethanesulfonamide] | < 25 nM
2 | O=C(C(c1cccnc1)N1CC[C@H](NS(=O)(=O)CCc2ccc(Cl)s2)C1=O)N1CCOCC1 (mixture of isomers) [Example 92, 2-(5-chloro-2-thienyl)-N-{(3S)-1-[2-(4-morpholinyl)-2-oxo-1-(3-pyridinyl)ethyl]-2-oxo-3-pyrrolidinyl}ethanesulfonamide] | < 50 nM
3 | CCOC[C@@H](C(=O)N1CCOCC1)N1CC[C@H](NS(=O)(=O)CC(C)c2ccc(Cl)s2)C1=O (stereo partly drawn) [Example 59, 2-(5-chloro-2-thienyl)-N-{(3S)-1-[(1S)-1-[(ethyloxy)methyl]-2-(4-morpholinyl)-2-oxoethyl]-2-oxo-3-pyrrolidinyl}-1-propanesulfonamide] | < 25 nM
4 | C[C@@H](C(=O)N1CCOCC1)N1CC[C@H](NS(=O)(=O)CCc2ccc(Br)cc2)C1=O [Example 33, 2-(4-bromophenyl)-N-{(3S)-1-[(1S)-1-methyl-2-morpholin-4-yl-2-oxoethyl]-2-oxopyrrolidin-3-yl}ethanesulfonamide] | < 25 nM
5 | CS(=O)(=O)CC[C@@H](C(=O)N1CCOCC1)N1CC[C@H](NS(=O)(=O)CCc2ccc(Cl)cc2)C1=O [Example 99, 2-(4-chlorophenyl)-N-{(3S)-1-[(1S)-3-(methylsulfonyl)-1-(4-morpholinylcarbonyl)propyl]-2-oxo-3-pyrrolidinyl}ethanesulfonamide] | < 200 nM
6 | O=C([C@H](Cc1ccc(F)cc1)N1CC[C@H](NS(=O)(=O)CCc2ccc(Cl)s2)C1=O)N1CCOCC1 [Example 70, 2-(5-chloro-2-thienyl)-N-{(3S)-1-[(1S)-1-[(4-fluorophenyl)methyl]-2-(4-morpholinyl)-2-oxoethyl]-2-oxo-3-pyrrolidinyl}ethanesulfonamide] | < 50 nM
7 | Cc1noc(C[C@@H](C(=O)N2CCOCC2)N2CC[C@H](N(C)S(=O)(=O)CCc3ccc(Cl)s3)C2=O)n1 [Example 79, 2-(5-chloro-2-thienyl)-N-methyl-N-{(3S)-1-[(1S)-1-[(3-methyl-1,2,4-oxadiazol-5-yl)methyl]-2-(4-morpholinyl)-2-oxoethyl]-2-oxo-3-pyrrolidinyl}ethanesulfonamide] | < 50 nM
8 | C[C@@H](C(=O)N1CCOCC1)N1CC[C@H](NS(=O)(=O)CC2OCc3cc(Cl)ccc32)C1=O (stereo partly drawn) [Example 66, 1-(5-chloro-1,3-dihydro-2-benzofuran-1-yl)-N-{(3S)-1-[(1S)-1-methyl-2-(4-morpholinyl)-2-oxoethyl]-2-oxo-3-pyrrolidinyl}methanesulfonamide] | < 50 nM
9 | CCOC(=O)CN([C@H]1CCN([C@@H](C)C(=O)N2CCOCC2)C1=O)S(=O)(=O)CCc1ccc(Cl)s1 [Example 34, Ethyl N-{[2-(5-chlorothien-2-yl)ethyl]sulfonyl}-N-{(3S)-1-[(1S)-1-methyl-2-morpholin-4-yl-2-oxoethyl]-2-oxopyrrolidin-3-yl}glycinate] | < 25 nM
10 | CC[C@@H](C(=O)N1CCOCC1)N1CC[C@H](NS(=O)(=O)CCc2ccc(Br)cc2)C1=O [Example 26, 2-(4-bromophenyl)-N-{(3S)-1-[(1S)-1-(morpholin-4-ylcarbonyl)propyl]-2-oxopyrrolidin-3-yl}ethanesulfonamide] | < 100 nM
11 | C[C@@H](C(=O)N1CCOCC1)N1CC[C@H](NS(=O)(=O)CCc2ccc(Cl)cc2F)C1=O [Example 25, 2-(4-chloro-2-fluorophenyl)-N-{(3S)-1-[(1S)-1-methyl-2-morpholin-4-yl-2-oxoethyl]-2-oxopyrrolidin-3-yl}ethanesulfonamide] | < 200 nM
12 | C[C@@H](C(=O)N1CCOCC1)N1CC[C@H](NS(=O)(=O)CC2CCc3cc(Cl)ccc32)C1=O (stereo partly drawn) [Example 61, 1-(5-chloro-2,3-dihydro-1H-inden-1-yl)-N-{(3S)-1-[(1S)-1-methyl-2-(4-morpholinyl)-2-oxoethyl]-2-oxo-3-pyrrolidinyl}methanesulfonamide] | < 100 nM
13 | CCOC[C@@H](C(=O)N1CCOCC1)N1CC[C@H](NS(=O)(=O)CCc2ccc(Cl)cn2)C1=O [Example 49, 2-(5-chloro-2-pyridinyl)-N-{(3S)-1-[(1S)-1-[(ethyloxy)methyl]-2-(4-morpholinyl)-2-oxoethyl]-2-oxo-3-pyrrolidinyl}ethanesulfonamide] | < 25 nM
14 | CO[C@H](C)[C@@H](C(=O)N1CCOCC1)N1CC[C@H](NS(=O)(=O)/C=C(\C)c2ccc(Cl)s2)C1=O [Example 18, (1E)-2-(5-chlorothien-2-yl)-N-{(3S)-1-[(1S,2R)-2-methoxy-1-(morpholin-4-ylcarbonyl)propyl]-2-oxopyrrolidin-3-yl}prop-1-ene-1-sulfonamide] | < 10 nM
15 | O=C([C@H](Cc1cscn1)N1CC[C@H](NS(=O)(=O)CCc2ccc(Cl)s2)C1=O)N1CCOCC1 [Example 71, 2-(5-chloro-2-thienyl)-N-{(3S)-1-[(1S)-2-(4-morpholinyl)-2-oxo-1-(1,3-thiazol-4-ylmethyl)ethyl]-2-oxo-3-pyrrolidinyl)ethanesulfonamide] | < 50 nM
16 | C[C@@H](C(=O)N1CCOCC1)N1CC[C@H](NS(=O)(=O)CCc2ccc(Cl)cc2Cl)C1=O [Example 42, 2-(2,4-dichlorophenyl)-N-{(3S)-1-[(1S)-1-methyl-2-morpholin-4-yl-2-oxoethyl]-2-oxopyrrolidin-3-yl}ethanesulfonamide] | < 200 nM
17 | CC[C@H](C)[C@@H](C(=O)N1CCOCC1)N1CC[C@H](NS(=O)(=O)CC2CCc3cc(Cl)ccc32)C1=O (stereo partly drawn) [Example 63, 1-(5-chloro-2,3-dihydro-1H-inden-1-yl)-N-{(3S)-1-[(1S,2S)-2-methyl-1-(4-morpholinylcarbonyl)butyl]-2-oxo-3-pyrrolidinyl}methanesulfonamide] | < 50 nM
18 | CC[C@H](C)[C@@H](C(=O)N1CCOCC1)N1CC[C@H](NS(=O)(=O)CCc2ccc(Br)cc2)C1=O [Example 12, 2-(4-bromophenyl)-N-{(3S)-1-[(1S,2S)-2-methyl-1-(morpholin 4-ylcarbonyl)butyl]-2-oxopyrrolidin-3-yl}ethanesulfonamide] | < 25 nM
19 | O=C([C@H](c1cccs1)N1CC[C@H](NS(=O)(=O)CCc2ccc(Cl)cc2)C1=O)N1CCOCC1 [Example 74, 2-(4-chlorophenyl)-N-{(3S)-1-[(1R)-2-(4-morpholinyl)-2-oxo-1-(2-thienyl)ethyl]-2-oxo-3-pyrrolidinyl}ethanesulfonamide] | < 100 nM
20 | CC[C@H](C)[C@@H](C(=O)N1CCOCC1)N1CC[C@H](NS(=O)(=O)CC(O)c2ccc(Cl)cc2)C1=O (stereo partly drawn) [Example 53, 2-(4-chlorophenyl)-2-hydroxy-N-{(3S)-1-[(1S,2S)-2-methyl-1-(4-morpholinylcarbonyl)butyl]-2-oxo-3-pyrrolidinyl}ethanesulfonamide] | < 100 nM
21 | CC[C@H](C)[C@@H](C(=O)N1CCOCC1)N1CC[C@H](NS(=O)(=O)CC(C)c2ccc(Cl)s2)C1=O (stereo partly drawn) [Example 57, 2-(5-chloro-2-thienyl)-N-{(3S)-1-[(1S,2S)-2-methyl-1-(4-morpholinylcarbonyl)butyl]-2-oxo-3-pyrrolidinyl}-1-propanesulfonamide] | < 25 nM
22 | CC[C@H](C)[C@@H](C(=O)N1CCOCC1)N1CC[C@H](N(CC(=O)NC)S(=O)(=O)CCc2ccc(Cl)s2)C1=O [Example 39, N^2-{[2-(5-chlorothien-2-yl)ethyl]sulfonyl}-N^1-methyl-N^2-{(3S)-1-[(1S,2S)-2-methyl-1-(morpholin-4-ylcarbonyl)butyl]-2-oxopyrrolidin-3-yl}glycinamide] | < 25 nM
23 | CCOC[C@@H](C(=O)N1CCOCC1)N1CC[C@H](NS(=O)(=O)CCc2ccc(Cl)cc2)C1=O [Example 86, 2-(4-chlorophenyl)-N-((3S)-1-[(1S)-1-[(ethyloxy)methyl]-2-(4-morpholinyl)-2-oxoethyl]-2-oxo-3-pyrrolidinyl}ethanesulfonamide] | < 25 nM
24 | COC[C@@H](C(=O)N1CCOCC1)N1CC[C@H](NS(=O)(=O)/C=C(\C)c2ccc(Cl)s2)C1=O [Example 16, (1E)-2-(5-chlorothien-2-yl)-N-{(3S)-1-[(1S)-1-(methoxymethyl)-2-morpholin-4-yl-2-oxoethyl]-2-oxopyrrolidin-3-yl}prop-1-ene-1-sulfonamide] | < 10 nM
25 | CC(C)OC[C@@H](C(=O)N1CCOCC1)N1CC[C@H](NS(=O)(=O)CCc2ccc(Cl)s2)C1=O [Example 84, 2-(5-chloro-2-thienyl)-N-{(3S)-1-[(1S)-1-{[(1-methylethyl)oxy]methyl}-2-(4-morpholinyl)-2-oxoethyl]-2-oxo-3-pyrrolidinyl}ethanesulfonamide] | < 10 nM
26 | O=C([C@H](CCN1CCCCC1)N1CC[C@H](NS(=O)(=O)CCc2ccc(Cl)s2)C1=O)N1CCOCC1 [Example 94, 2-(5-chloro-2-thienyl)-N-{(3S)-1-[(1S)-1-(4-morpholinylcarbonyl)-3-(1-piperidinyl)propyl]-2-oxo-3-pyrrolidinyl}ethanesulfonamide] | < 100 nM
